Literature values in US20240423930A1, “PHARMACEUTICAL COMPOSITION AND METHOD FOR TREATING CARDIOVASCULAR DISEASES” (priority 2020, published 2024).

Test system: furin
Details: ectopic expression of the inhibitor; in vitro digestion assay

Substance: alpha (1)-antitrypsin Portland [alpha(1)-AT-PDX]
- blocked TGF-beta1 processing mediated by endogenous enzymes: 80%
